Results from patent US10729742B2, “Screening method for the identification of agents capable of activating CD4+CD25+ regulatory T-cells through interactions with the HIV-1 GP120 binding site on CD4” (priority 2007, dated 2020).

How the values were obtained:
CD4+CD25+ Treg cells [1] = experiment: Coculture suppression assay B: CD8+ T effector cell proliferation (3H-Tdr incorporation) with CD4+CD25+ Treg cells and syngenic T cell-depleted PBMC; type: cell-based, human; details: for proliferation of CD8+ T cells co-cultured with CD4+CD25+ Treg cells and inactivated syngenic CD3-depleted PBMC: FIG. 1 black bars, compared with CD8+ T cells without Tregs, 3H-Tdr incorporation 4 days later, effect dose-dependent; for proliferation of CD4+CD25+ Tregs: FIG. 1 white bars
From the text: In order to study the influence of a substance, e.g. HIV-1 gp120 which can bind at least to the epitope given in SEQ ID NO.:1 exclusively on the suppressive function of CD4^+CD25^+ Treg cells, we developed a co-culture assay which contained CD8^+ T cells as effectors to exclude any influence of this substance on the latter (CD8^+ T cells don't express CD4). […] To evaluate the influence of e.g. HIV-1 gp120 on the function of CD4^+CD25^+ Treg cells, isolated CD4^+CD25^+ Treg cells (2.1.4) are co-cultured with syngenic, T cell-depleted and irradiated (50 Gy) PBMC 2.1.6) and allogeneic CD8^+ T effector cells (2.1.3) in presence of varying concentrations (0.1-10 μg/ml) of different HIV-1 gp120 preparations. Briefly, 1×10^5 CD4^+CD25^+ Treg cells are incubated with 3×10^5 syngenic T cell-depleted PBMC in the presence or absence of varying amounts of HIV-1 gp120. Stimulation with 0.5 μg/ml anti-CD3 monoclonal antibody (OKT-3, ebioscience, USA) serves as positive control. No additional stimulation represents negative control. Either immediately or 24 h. later, 1×10^5 allogeneic CD8^+ T effector cells are added to the cultures and proliferation is determined after additional 72 h. by ^3H-Tdr incorporation (37 kBq/well). Functional activation of CD4^+CD25^+ Treg cells via interaction with the epitope as set forth in SEQ ID NO:1 result in suppressed proliferation of CD8^+ T effector cells and therewith identifies a substance as a Treg cell activator (Data see FIG. 1).
After 3-4 days of incubation of cells in assays provided under (2.2.1), (2.2.2) and (2.2.3) T cell proliferation is measured. For additional 16 h., cells are pulsed with ^3H-Tdr (37 kBq/well, MB Biomedicals), and incorporated radioactivity is measured by using a liquid scintillation counter (Betaplate, Wallac/PerkinElmer). In the absence of a Treg cell activating compound, resting Treg cells cannot inhibit the proliferation of CD4^+ T helper cells or CD8^+ T effector cells (negative control). In contrast, in presence of an activating CD4-binding compound or anti-CD3 monoclonal antibody (positive control) the proliferation of CD4^+ T helper cells or CD8^+ T effector cells is suppressed by CD4^+CD25^+ Treg cells. A reduced incorporated radioactivity resembles suppressed proliferation and identifies CD4^+ T helper cell or CD8^+ T effector cell inhibition and therewith identifies that a CD4^+CD25^+ Treg cell has been activated.
In order to study the influence of HIV-1 gp120 exclusively on the function of CD4^+CD25^+ Treg cells, we developed a coculture assay which contained CD8^+ T cells as effectors to exclude any influence of HIV-1 gp120 on the latter. Therefore, isolated CD4^+CD25^+ Treg cells are cocultured with T cell-depleted syngenic PBMC and allogeneic CD8^+ T effector cells. […] (All HIV-1 gp120 proteins: Protein Sciences Corp. Meriden, USA).
1×10^5 isolated CD25^+ Treg cells were incubated with 3×10^5 irradiated (50 Gy) syngenic T cell-depleted PBMC and 1×10^5 allogeneic CD8^+ T effector cells in presence/absence of different HIV-1 gp120 preparations, addition of 0.5 μg/ml anti-CD3 (OKT-3) served as positive control. Proliferation was determined by ^3H-Tdr-Incorporation 4 days later.
Grey bars represent proliferation of CD8^+ T cells and inactivated syngenic CD3-depleted PBMC, white bars represent the proliferation of CD4^+CD25^+ Tregs and the black bars represent the proliferation of CD8^+ T cells co-cultured with CD4^+CD25^+ Tregs cells and inactivated syngenic CD3-depleted PBMC. Due to inactivation PBMC don't contribute to proliferation of the samples.

NOD-Scid mice [2] = experiment: GVHD induced by transfer of human CD25-depleted PBMC into NOD-Scid mice; lack of weight increase/weight loss as score; type: in vivo; details: FIG. 5; 5 μg HIV gp120 injected together with CD25-depleted PBMC, intraperitoneal
From the text: NOD-Scid mice at the age of three to six days after birth are intraperitoneally injected with 1×10^7 human CD25-depleted PBMC (isolation of human CD25-depleted PBMC according to 2.1.7). GVHD is induced by 1×10^7 human CD25-depleted PBMC at the same magnitude as by transfer of 1×10^7 human non CD25-depleted PBMC into NOD-Scid mice. […] Prevention of GVHD by HIV gp120 or a substance which can interfere with HIV-1 gp120-binding depends on regulatory T cells. Lack of weight increase/weight loss is used as a parameter to score GVHD severity. Data see FIG. 5.
Three to six days old NOD-Scid mice are intraperitoneally injected with 1×10^7 human CD25-depleted PBMC without (circles) or together with 5 μg HIV gp120 (triangles). […] Lack of weight increase/weight loss is used as a parameter to score GVHD severity.

CD4+CD25+ Treg cells [3] = experiment: Cytosolic cAMP measurement in CD4+CD25+ Treg cells (cAMP-specific ELISA); type: cell-based, human; details: FIG. 2; 1 μg/ml, 16 hours of stimulation, 1×10^6 T cells
Procedure: Stimulation of Treg cells results in strong increase of cytosolic (i.e. intracellular) cAMP. Therefore, the analysis of cAMP in Treg cells is an additional method to determine whether a substance which can interfere with HIV-1 gp120 binding to CD4 epitope of a CD4-positive cell can activate a Treg cell. In this assay freshly isolated CD4^+CD25^+ Treg cells (according to 2.1.4) (1×10^5-1×10^6/well) are incubated with anti-CD3 monoclonal antibody (OKT-3; 0.5 μg/ml) or HIV-1 gp120 (0.1-10 μg/ml; Protein Science Corp., Meriden, Conn., USA) or left untreated for 16 hours. To assess cytosolic cAMP-concentrations a cAMP-specific ELISA (Parameter™ Cyclic AMP Assay, Cat. No. KGE002; R&D Systems, Wiesbaden, Germany) is applied. […]
Activation of Treg cells by the test compound results directly in an increase of cytosolic cAMP. In the absence of a Treg cell activating compound no increase of cAMP in CD4^+CD25^+ Treg cells is detected (negative control). […]
CD4^+CD25^+ regulatory T cells (CD25) are left untreated (0) or stimulated with an anti-CD3 monoclonal Antibody (OKT-3; 1 μg/ml) or HIV-1 gp120 (1 μg/ml). Upon 16 hours of stimulation the CD4^+CD25^+ regulatory T cells are lysed (1×10^7/ml) and the cytosolic cAMP concentration of 1×10^6 T cells is assessed using a cAMP-specific ELISA. […]

NOD-Scid mice [4] = experiment: GVHD induced by transfer of human PBMC into NOD-Scid mice; lack of weight increase/weight loss as score; type: in vivo; details: FIG. 4; 5 μg HIV gp120 injected together with PBMC, intraperitoneal, three to six days old mice
From the text: NOD-Scid mice, non-obese diabetic/severe combined immunodeficient mice, (mutant allele: Prkdc^Scid strain: NOD.CB 17-Prkdc^Scid, (Shultz et al. 1995)) from the Central Laboratory Animal Facility of the University of Mainz (also purchasable from The Jackson Laboratory via Charles River Laboratories, Germany) are used as an animal model for transfer of peripheral human immune cells and thus for the in vivo analysis of immuno-regulatory interactions (Hesselton et al. 1995). Human peripheral blood mononuclear cells (PBMC) transferred into NOD-Scid mice induce an accelerating […] graft-versus-host disease (GVHD). While the number of cells transferred determines the onset of this disease, the co-transfer of human Tregs can gradually delay or prevent the disease. This model system further allows the study of human Treg function. To induce a GVHD NOD-Scid mice at the age of three to six days after birth are intraperitoneally injected with 1×10^7 to 3×10^7 human PBMC (isolation of human PBMC according to 2.1.1). GVHD is induced by immunological (xenogenic) activation of human effector T cells in the PBMC fraction injected into the mice. NOD-Scid mice, however, are not able to react against the grafted human PBMC. […]

| Substance | proliferation of CD8+ T cells co-cultured with CD4+CD25+ Treg cells and inactivated syngenic CD3-depleted PBMC (CD4+CD25+ Treg cells [1]) | proliferation of CD4+CD25+ Tregs (CD4+CD25+ Treg cells [1]; 3H-Tdr incorporation) | development of GVHD (relative body weight) after transfer of 1×10^7 human CD25-depleted PBMC (NOD-Scid mice [2]) | cytosolic (intracellular) cAMP in Treg cells compared to untreated control (CD4+CD25+ Treg cells [3]) | development of GVHD (relative body weight) after transfer of 1×10^7 human PBMC (NOD-Scid mice [4]) | proliferation of CD8+ T cells and inactivated syngenic CD3-depleted PBMC, without Tregs (CD4+CD25+ Treg cells [1]; FIG. 1 grey bars, 3H-Tdr incorporation) |
| --- | --- | --- | --- | --- | --- | --- |
| HIV-1 gp120 CM: HIV-1 gp120 preparation CM, Protein Sciences Corp. Meriden, USA | reduced proliferation | don't show a significant proliferation |  |  |  |  |
| HIV-1 gp120 LAV: HIV-1 gp120 preparation LAV, Protein Sciences Corp. Meriden, USA | reduced proliferation | don't show a significant proliferation |  |  |  |  |
| HIV-1 gp120 MN: HIV-1 gp120 preparation MN, Protein Sciences Corp. Meriden, USA | reduced proliferation | don't show a significant proliferation |  |  |  |  |
| HIV-1 gp120: human immune deficiency virus 1 (HIV-1) glycoprotein gp120, binds CD4; Protein Sciences Corp. |  |  | not protected from development of GVHD | increase of intracellular cAMP | protected from development of GVHD |  |
| anti-CD3: anti-CD3 monoclonal antibody (OKT-3, ebioscience, USA), positive control [reference compound] | reduced proliferation | don't show a significant proliferation |  | increase of intracellular cAMP |  | strong increased proliferation |
